From patent US6652874B2, “Pharmaceutical preparations and methods for their regional administration” (FemmePharma, priority 1997, dated 2003)

Assays:
[1] = rat, in vivo
Method: Mature female Sprague-Dawley rats were used for the experiment. 1 mg of the microparticulate danazol was delivered in a volume of 50 μl to the vaginal vault and the animals sacrificed at the times noted below. The uterus and ovaries were separately homogenized and blood was drawn. All tissues and biological samples were processed. Danazol was extracted and assayed by HPLC methodology.
Danazol was extracted from serum and tissue hexane/chloroform 80/20. For tissues, 1 ml aliquote of each homogenate was taken. The extracted danazol was reconstituted in a water/acetonitrile mobile phase and a Beckman Ultrasphere 5 micron, 4.6 mm×15 cm reverse phase column (C-18 RP) was used for all the HPLC analyses. A danazol recovery study was conducted using danazol drug product. The recovery was determined by comparing the extracted signal with unextracted signal.

[2] = high doses, up to 800 mg daily; cited from earlier work

## C#C[C@]1(O)CC[C@H]2[C@@H]3CCC4=Cc5oncc5C[C@]4(C)[C@H]3CC[C@@]21C [Danazole, Danazol]
[1]
  Serum drug levels (in words): almost undetectable
[2]
  Adverse side effects: adverse side effects are seen
